Legend:
[1] = biological target: T1, V1 Receptor Subtype in Human Platelet (Homo sapiens, UniProt P37288); test: Binding to Vasopressin V1 receptor subtype in Human Platelet Membranes; settings: human platelet membranes
T1 construct: tissue Hudson Valley Blood Services, Westchester Medical Center, Valhalla, N.Y; host or cells: human platelets (frozen platelet rich plasma)
Experimental: Radioligand Binding Experiments with Human Platelet Membranes (a) Platelet Membrane Preparation: Frozen platelet rich plasma (PRP), (Platelet Source: Hudson Valley Blood Services, Westchester Medical Center, Valhalla, N.Y.) are thawed to room temperature. The tubes containing the PRP are centrifuged at 16,000×g for 10 min. at 4° C. and the supernatant fluid discarded. […] The suspension is recentrifuged at 16,000× g for 10 min. This washing step is repeated one more time. The wash discarded and the lysed pellets homogenized in low ionic strength buffer of Tris.HCl, 5.0 mM, pH 7.5 containing 5.0 mM EDTA. The homogenate is centrifuged at 39,000× g for 10 min. The resulting pellet is resuspended in Tris. […] The final pellet is resuspended in 50.0 mM Tris. HCl buffer pH 7.4 containing 120 mM NaCl and 5.0 mM KCl to give 1.0-2.0 mg protein per ml of suspension. […] Platelet Membranes […] Then add 20 μl of [^3 H]Ligand (Manning or […] Vasopressin), to give final concentrations ranging from 0.01 to 10.0 nM. Initiate the binding by adding 80.0 μl of platelet suspension (approx. 100 μg protein). Mix all reagents by pipetting the mixture up and down a few times. Non specific binding is measured in the presence of 1.0 μM of unlabeled ligand (Manning or […] Vasopressin). Let the mixture stand undisturbed at room temperature for ninety (90) min. Upon this time, rapidly filter off the incubate under vacuum suction over GF/B filters, using a Brandel Harvester. Determine the radioactivity caught on the filter disks by the addition of liquid scintillant and counting in a liquid scintillator.

[2] = biological target: T2, Human V2 Vasopressin Receptor (Homo sapiens, UniProt P30518); test: Binding to Membranes of Mouse Fibroblast Cell Line (LV-2) Transfected with the cDNA Expressing the Human V2 Vasopressin Receptor; settings: LV-2 cell membranes, human V2; read-out: V2 IC50 (**)
T2 construct: expressed in transfected cells; host or cells: mouse fibroblast cell line LV-2
Experimental: Binding to Membranes of Mouse Fibroblast Cell Line (LV-2) Transfected with the cDNA Expressing the Human V2 Vasopressin Receptor
Flasks of 175 ml capacity, containing attached cells grown to confluence, are cleared of culture medium by aspiration. The flasks containing the attached cells are rinsed with 2×5 ml of phosphate buffered saline (PBS) and the liquid aspirated off each time. Finally, 5 ml of an enzyme free dissociation Hank's based solution (Specialty Media, Inc., Lafayette, N.J.) is added and the flasks are left undisturbed for 2 min. The content of all flasks is. poured into a centrifuge tube and the cells pelleted at 300× g for 15 min. The Hank's based solution is aspirated off and the cells homogenized with a polytron at setting #6 for 10 sec in 10.0 mM Tris.HCl buffer, pH 7.4 containing 0.25M sucrose and 1.0 mM EDTA. The homogenate is centrifuged at 1500× g for 10 min to remove ghost membranes. The supernatant fluid is centrifuged at 100,000× g for 60 min. to pellet the receptor protein. Upon completion, the pellet is resuspended in a small volume of 50.0 mM Tris. HCl buffer, pH 7.4. The protein content is determined by the Lowry method and the receptor membranes are suspended in 50.0 mM Tris.HCl buffer containing 0.1 mM phenylmethylsulfonylfluoride (PMSF) and 0.2% bovine serum albumin (BSA) to give 2.5 mg receptor protein per ml of suspension.
Arginine^8, vasopressin (S.A. 75.0 Ci/mmole) at 0.8 nM and the reaction initiated by the addition of 80.0 μl of tissue membranes (200.0 μg tissue protein). The plates are left undisturbed on the bench top for 120 min to reach equilibrium. Non specific binding is assessed in the presence of 1.0 μM of unlabeled ligand, added in 20 μl volume. For test compounds, these are solubilized in 50% dimethylsulfoxide (DMSO) and added in 20.0 μl volume to a final incubation volume of 200 μl. Upon completion of binding, the content of each well is filtered off, using a Brandel® cell Harvester (Gaithersburg, Md.). The radioactivity trapped on the filter disk by the ligand-receptor complex is assessed by liquid scintillation counting in a Packard LS Counter, with an efficiency of 65% for tritium. The data are analyzed for IC50 values by the LUNDON-2 program for competition (LUNDON SOFTWARE, Ohio).

oxytocin receptors = biological target: T3, oxytocin receptors (Rattus norvegicus, UniProt P70536); test: Oxytocin Receptor Binding; settings: for IC50: 1.0 nM [3H]oxytocin; for inhibition at 10 µM: [3H]oxytocin
T3 construct: The uteri are dissected out, cleaned of fat and connective tissues; from tissue; host or cells: uterus of DES-treated female Sprague-Dawley rats
T3 sequence (P70536 1-388): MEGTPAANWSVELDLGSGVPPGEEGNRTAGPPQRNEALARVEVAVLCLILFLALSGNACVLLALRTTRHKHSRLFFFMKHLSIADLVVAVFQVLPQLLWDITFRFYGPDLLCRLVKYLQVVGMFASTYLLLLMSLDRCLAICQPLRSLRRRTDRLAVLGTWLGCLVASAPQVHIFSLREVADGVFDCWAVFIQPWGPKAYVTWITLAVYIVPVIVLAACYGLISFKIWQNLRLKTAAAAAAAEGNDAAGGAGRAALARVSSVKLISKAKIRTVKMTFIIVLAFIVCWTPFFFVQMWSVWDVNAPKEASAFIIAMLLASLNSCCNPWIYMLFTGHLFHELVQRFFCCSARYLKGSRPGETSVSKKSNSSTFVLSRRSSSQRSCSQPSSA
In short: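 IC50 is the concentration displacing 50% of 1.0 nM [3H]OT, incubated 60 min at 22 °C in pH 7.4 Tris/MgCl2 buffer plus protease inhibitors, then filtered. Receptor source: uterine membranes from rats given 0.3 mg/kg DES i.m. 18 h earlier. 1.0 uM cold OT defined non-specific binding.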

Vasopressin V2 = Vasopressin V2 Antagonist Activity in Conscious Hydrated Rats; type: in vivo, rat; settings: 10 mg/kg orally, AVP 0.4 μg/kg i.p.
In short: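 Four-hour urine output, osmolality and electrolytes (Na+, K+, Cl−) recorded in water-loaded rats (30 mL/kg deionized water orally) given AVP i.p. at 0.4 μg/kg. Test compounds were given orally at 0.1–100 mg/kg 1 h before AVP; 2–4 rats per compound.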

T2 sequence (P30518 whole entry): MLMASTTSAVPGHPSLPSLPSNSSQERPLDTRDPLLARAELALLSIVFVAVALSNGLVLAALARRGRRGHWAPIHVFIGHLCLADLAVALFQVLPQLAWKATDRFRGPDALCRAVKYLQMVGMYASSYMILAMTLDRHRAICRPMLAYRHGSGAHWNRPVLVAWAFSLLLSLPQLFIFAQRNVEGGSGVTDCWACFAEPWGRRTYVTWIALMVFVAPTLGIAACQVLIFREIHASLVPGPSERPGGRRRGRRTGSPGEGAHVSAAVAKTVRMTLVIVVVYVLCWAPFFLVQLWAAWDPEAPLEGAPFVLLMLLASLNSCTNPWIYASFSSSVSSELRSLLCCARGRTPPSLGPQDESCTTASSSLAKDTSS
T1 sequence (P37288 whole entry): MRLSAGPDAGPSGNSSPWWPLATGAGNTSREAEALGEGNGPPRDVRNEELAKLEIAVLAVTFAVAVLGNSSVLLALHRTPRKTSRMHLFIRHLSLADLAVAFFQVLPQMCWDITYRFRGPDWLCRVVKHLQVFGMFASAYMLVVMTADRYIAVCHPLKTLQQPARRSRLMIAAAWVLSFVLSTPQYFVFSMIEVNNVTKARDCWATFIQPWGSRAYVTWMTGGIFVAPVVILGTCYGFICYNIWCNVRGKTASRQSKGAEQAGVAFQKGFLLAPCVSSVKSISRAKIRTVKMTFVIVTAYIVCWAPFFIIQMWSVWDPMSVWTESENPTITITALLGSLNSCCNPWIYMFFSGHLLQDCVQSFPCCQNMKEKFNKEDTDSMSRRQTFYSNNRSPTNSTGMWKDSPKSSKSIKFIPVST

Row | IC50 [1] | IC50 [2] | IC50 (oxytocin receptors) | inhibition at 10 µM (oxytocin receptors) | Structure (SMILES) | Osmolality (Vasopressin V2) | Urine Volume (Vasopressin V2)
1 | 310 nM | 7 nM | 160 nM | 94% | O=C(Nc1ccc(C(=O)N2Cc3ccc(Cl)n3Cc3ccccc32)cc1)c1ccc(Cl)cc1Cl [Example 54, N-[4-(3-Chloro-5H-pyrrolo[2,1-c]-[1,4]benzodiazepin-10(11H)yl-carbonyl)phenyl]-2,4-dichloro-benzamide] | 1275 mOsm/kg | 5 ml/4 hrs
2 | 850 nM | 4.4 nM | 2200 nM | 79% | O=C(Nc1ccc(C(=O)N2Cc3ccnn3Cc3ccccc32)c(Cl)c1)c1ccc(Cl)cc1Cl [Example 520, N-[4-(4H-Pyrazolo[5,1-c][1,4]benzodiazepin-5(10H)-ylcarbonyl)-3-chlorophenyl]-2,4-dichlorobenzamide] | 394 mOsm/kg | 18.5 ml/4 hrs
3 | 120 nM | 3.2 nM | 480 nM | 97% | Cc1ccccc1C(=O)Nc1ccc(C(=O)N2Cc3ccnn3Cc3ccccc32)c(Cl)c1 [Example 519, N-[4-(4H-Pyrazolo[5,1-c][1,4]benzodiazepin-5(10H)-ylcarbonyl)-3-chlorophenyl]-2-methylbenzamide] | 399 mOsm/kg | 19.9 ml/4 hrs
4 | 990 nM | 2 nM | 450 nM | 92% | O=C(Nc1ccc(C(=O)N2Cc3cccn3Cc3ccccc32)c(Cl)c1)c1c(Cl)cccc1Cl [Example 529, N-(4-(5H-pyrrolo[2,1-c][1,4]benzodiazepin-10(11H-)-ylcarbonyl]-3-chlorophenyl]-2,6-dichlorobenzamide] | 569 mOsm/kg | 10.5 ml/4 hrs
5 | 170 nM | 1.2 nM | 1800 nM | 84% | CSc1ccccc1C(=O)Nc1ccc(C(=O)N2Cc3cccn3Cc3ccccc32)c(Cl)c1 [Example 524, N-[4-(5H-pyrrolo[2,1-c][1,4]benzodiazepin-10(11H)-ylcarbonyl)-3-chlorophenyl]-2-(thiomethylbenzamide)] | 528 mOsm/kg | 10 ml/4 hrs
6 | 50 nM | 3.3 nM | 470 nM | 97% | O=C(Nc1ccc(C(=O)N2Cc3cccn3Cc3ccccc32)c(Cl)c1)c1ccccc1Cl [Example 526, N-[4-(5H-pyrrolo[2,1-c][1,4]benzodiazepin-10(11H)-ylcarbonyl]-3-chlorophenyl]-2-chlorobenzamide] | 455 mOsm/kg | 17.8 ml/4 hrs

— US5624923A, “Tricyclic diazepine vasopressin antagonists and oxytocin antagonists” (priority 1995, dated 1997)
